System: 233499-124-R-J3-PDC spheroids with HUVEC/MSC, viability
Test: Anticancer human tumor 233499-124-R-J3-PDC patient-derived colon adenocarcinoma cell line growth inhibition [PI3K]
Settings: for IC50: curve of first compound; for viability, T/C: stronger effect = lower value; active means viability on the fitted dose curve at most 10% of control; inactive means the rest
Method in brief: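 Viability of mixed-cell spheroids was determined after exposure to pairwise combinations, one partner being inavolisib, alpelisib, duvelisib or copanlisib. Highest tested concentration matched clinical Cmax where known and 10 microM where not, descending in half-log steps.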

[1] = second compound 0.00316 µM, first compound 0.0316 µM
[2] = second compound 0.00316 µM, first compound 0.1 µM
[3] = second compound 0.00316 µM, first compound 0.316 µM
[4] = second compound 0.00316 µM, first compound 1 µM
[5] = second compound 0.00316 µM, first compound 3.16 µM
[6] = second compound 0.00316 µM, first compound 10 µM
[7] = second compound 0.01 µM, first compound 0.0316 µM
[8] = second compound 0.01 µM, first compound 0.1 µM
[9] = second compound 0.01 µM, first compound 0.316 µM
[10] = second compound 0.01 µM, first compound 1 µM
[11] = second compound 0.01 µM, first compound 3.16 µM
[12] = second compound 0.01 µM, first compound 10 µM
[13] = second compound 0.0316 µM, first compound 0.0316 µM
[14] = second compound 0.0316 µM, first compound 0.1 µM
[15] = second compound 0.0316 µM, first compound 0.316 µM
[16] = second compound 0.0316 µM, first compound 1 µM
[17] = second compound 0.0316 µM, first compound 3.16 µM
[18] = second compound 0.0316 µM, first compound 10 µM
[19] = second compound 0.1 µM, first compound 0.0316 µM
[20] = second compound 0.1 µM, first compound 0.1 µM
[21] = second compound 0.1 µM, first compound 0.316 µM
[22] = second compound 0.1 µM, first compound 1 µM
[23] = second compound 0.1 µM, first compound 3.16 µM
[24] = second compound 0.1 µM, first compound 10 µM
[25] = second compound 0.316 µM, first compound 0.0316 µM
[26] = second compound 0.316 µM, first compound 0.1 µM
[27] = second compound 0.316 µM, first compound 0.316 µM
[28] = second compound 0.316 µM, first compound 1 µM
[29] = second compound 0.316 µM, first compound 3.16 µM
[30] = second compound 0.316 µM, first compound 10 µM
[31] = second compound 1 µM, first compound 0.0316 µM
[32] = second compound 1 µM, first compound 0.1 µM
[33] = second compound 1 µM, first compound 0.316 µM
[34] = second compound 1 µM, first compound 1 µM
[35] = second compound 1 µM, first compound 3.16 µM
[36] = second compound 1 µM, first compound 10 µM
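Further: spheroids exposed to agents for seven days before readout.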
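Wherever viability, T/C is given: percent viability relative to DMSO vehicle control taken as 100%.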

CCCS(=O)(=O)Nc1ccc(F)c(C(=O)c2c[nH]c3ncc(-c4ccc(Cl)cc4)cc23)c1F + COc1c(OCCCN2CCOCC2)ccc2c3n(c(=NC(=O)c4cnc(N)nc4)nc12)CCN3
5.78 µM: IC50 (second compound 0.01 µM)
inactive: viability, T/C [1] 84% | viability, T/C [2] 87.8% | viability, T/C [3] 101% | viability, T/C [4] 94.1% | viability, T/C [5] 79.6% | viability, T/C [7] 88.4% | viability, T/C [8] 93.8% | viability, T/C [9] 88.9% | viability, T/C [10] 83% | viability, T/C [11] 90.1% | viability, T/C [12] 14.7% | viability, T/C [13] 89.7% | viability, T/C [14] 78.3% | viability, T/C [15] 84.2% | viability, T/C [16] 74.5% | viability, T/C [17] 77.6% | viability, T/C [19] 50.2% | viability, T/C [20] 56% | viability, T/C [21] 54.5% | viability, T/C [22] 51.5% | viability, T/C [23] 52.7% | viability, T/C [24] 12.5% | viability, T/C [25] 33.7% | viability, T/C [26] 35.8% | viability, T/C [27] 38.2% | viability, T/C [28] 27.2% | viability, T/C [29] 23.6% | viability, T/C [31] 10.5%
5 µM: IC50 (second compound 0.00316 µM)
3.41 µM: IC50 (second compound 0.1 µM)
5.03 µM: IC50 (second compound 0.0316 µM)
active: viability, T/C [6] 5.08% | viability, T/C [18] 9.06% | viability, T/C [30] 2.75% | viability, T/C [32] 9.36% | viability, T/C [33] 6.83% | viability, T/C [34] 18.9% | viability, T/C [35] 8.57% | viability, T/C [36] 1.66%
< 0.0316 µM: IC50 (second compound 0.316 µM) | IC50 (second compound 1 µM)

CNC(=O)c1ccc(N2C(=S)N(c3ccc(C#N)c(C(F)(F)F)c3)C(=O)C2(C)C)cc1F + COc1c(OCCCN2CCOCC2)ccc2c3n(c(=NC(=O)c4cnc(N)nc4)nc12)CCN3
active: viability, T/C [34] 5.24% | viability, T/C [35] 10.3% | viability, T/C [36] 4.27%
4.12 µM: IC50 (second compound 0.1 µM)
inactive: viability, T/C [1] 93.8% | viability, T/C [2] 97.3% | viability, T/C [3] 97.2% | viability, T/C [4] 81.9% | viability, T/C [5] 65.7% | viability, T/C [6] 54.3% | viability, T/C [7] 88.1% | viability, T/C [8] 105% | viability, T/C [9] 99% | viability, T/C [10] 87.7% | viability, T/C [11] 89.9% | viability, T/C [12] 60.1% | viability, T/C [13] 101% | viability, T/C [14] 85.3% | viability, T/C [15] 98.3% | viability, T/C [16] 78.1% | viability, T/C [17] 63.8% | viability, T/C [18] 50.4% | viability, T/C [19] 84% | viability, T/C [20] 53.8% | viability, T/C [21] 75.2% | viability, T/C [22] 64.2% | viability, T/C [23] 47.4% | viability, T/C [24] 44% | viability, T/C [25] 33% | viability, T/C [26] 30.5% | viability, T/C [27] 44.1% | viability, T/C [28] 32.3% | viability, T/C [29] 30.7% | viability, T/C [30] 12.1% | viability, T/C [31] 10% | viability, T/C [32] 24.7% | viability, T/C [33] 6.89%
> 10 µM: IC50 (second compound 0.00316 µM) | IC50 (second compound 0.01 µM) | IC50 (second compound 0.0316 µM)
< 0.0316 µM: IC50 (second compound 0.316 µM) | IC50 (second compound 1 µM)
